From ChEMBL document CHEMBL3046160, “Insecticidal Activities of the Enantiomers of Asymmetric 1-[1-(6-Chloro-3-pyridyl)ethyl]-2-nitroiminoimidazolidine against American Cockroach, Cucurbit Leaf Beetle, Green Rice Leafhopper and Green Peach Aphid Following Injection, Dipping and Spraying” (2004)

Assays:
Nephotettix cincticeps [1] = assay: Insecticidal activity against Nephotettix cincticeps (green rice leafhopper) in compound-sprayed rice plant assessed as mortality at 1.6 ppm after 2 to 7 days; format: functional
Periplaneta americana [2] = assay: Insecticidal activity against Periplaneta americana (American cockroach) compound administered through injection into abdomen in presence of piperonyl butoxide and NIA 16388; format: functional
Musca domestica [3] = assay: Insecticidal activity against Musca domestica (house fly) compound administered through injection in presence of piperonyl butoxide and NIA 16388; format: functional
[4] = target: T1, Nicotinic acetylcholine receptor alpha 5 subunit (Musca domestica) (UniProt A9XFY4); assay: Displacement of [3H]IMI from Musca domestica (house fly) head membrane nicotinic acetylcholine receptor
T1 sequence (whole entry): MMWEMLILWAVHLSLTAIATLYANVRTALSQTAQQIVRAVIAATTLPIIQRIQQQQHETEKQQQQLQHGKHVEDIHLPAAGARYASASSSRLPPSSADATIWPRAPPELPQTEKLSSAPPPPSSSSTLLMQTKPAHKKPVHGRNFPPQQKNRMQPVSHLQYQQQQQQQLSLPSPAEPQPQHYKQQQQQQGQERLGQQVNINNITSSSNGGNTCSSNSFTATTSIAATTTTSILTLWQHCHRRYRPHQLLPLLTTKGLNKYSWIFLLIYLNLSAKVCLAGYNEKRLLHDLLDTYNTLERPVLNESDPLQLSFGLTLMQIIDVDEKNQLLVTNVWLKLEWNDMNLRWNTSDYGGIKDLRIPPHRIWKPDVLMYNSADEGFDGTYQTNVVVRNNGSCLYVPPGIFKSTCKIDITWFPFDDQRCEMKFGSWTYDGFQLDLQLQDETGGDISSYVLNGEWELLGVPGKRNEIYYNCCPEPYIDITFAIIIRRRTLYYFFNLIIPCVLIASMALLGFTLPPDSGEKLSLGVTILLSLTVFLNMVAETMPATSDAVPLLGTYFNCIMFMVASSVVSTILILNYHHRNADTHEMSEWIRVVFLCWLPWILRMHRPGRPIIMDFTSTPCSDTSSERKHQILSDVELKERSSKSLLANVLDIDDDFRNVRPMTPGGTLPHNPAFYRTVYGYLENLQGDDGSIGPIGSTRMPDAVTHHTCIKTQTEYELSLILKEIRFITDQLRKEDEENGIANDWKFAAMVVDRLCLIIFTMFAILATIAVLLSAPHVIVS

Nephotettix cincticeps [5] = assay: Insecticidal activity against Nephotettix cincticeps (green rice leafhopper) in compound-sprayed rice plant assessed as mortality at 8 ppm after 2 to 7 days; format: functional
Periplaneta americana [6] = assay: Neuroblocking potency in Periplaneta americana (American cockroach) admoninal central nerve cod; format: functional
Aulacophora [7] = assay: Insecticidal activity against second-instar larvae of Aulacophora femoralis (cucurbit leaf beetle) in compound-treated cucumber leaf assessed as mortality at 8 ppm after 2 to 7 days; format: functional
Musca domestica [8] = assay: Insecticidal activity against Musca domestica (house fly) compound administered through injection; format: functional
Myzus persicae [9] = assay: Insecticidal activity against Myzus persicae (green peach aphid) in two-leaf stage eggplant assessed as mortality at 8 ppm after 7 days; format: functional; conditions: 168 h
Aulacophora [10] = assay: Insecticidal activity against second-instar larvae of Aulacophora femoralis (cucurbit leaf beetle) in compound-treated cucumber leaf assessed as mortality at 1.6 ppm after 2 to 7 days; format: functional
Periplaneta americana [11] = assay: Insecticidal activity against Periplaneta americana (American cockroach) compound administered through injection into abdomen; format: functional
Myzus persicae [12] = assay: Insecticidal activity against Myzus persicae (green peach aphid) in two-leaf stage eggplant assessed as mortality at 1.6 ppm after 7 days; format: functional; conditions: 168 h

SMILES | mortality at 1.6 ppm (Nephotettix cincticeps [1]) [%] | MLD (Periplaneta americana [2]) [nmol] | MLD (Musca domestica [3]) [pmol] | Activity [4] [µM] | mortality at 8 ppm (Nephotettix cincticeps [5]) [%] | Activity (Periplaneta americana [6]) [µM] | mortality at 8 ppm (Aulacophora [7]) [%] | MLD (Musca domestica [8]) [pmol] | mortality at 8 ppm (Myzus persicae [9]) [%] | mortality at 1.6 ppm (Aulacophora [10]) [%] | MLD (Periplaneta americana [11]) [nmol] | mortality at 1.6 ppm (Myzus persicae [12]) [%]
C[C@H](c1ccc(Cl)nc1)N1CCN/C1=N\[N+](=O)[O-] [(R)-METHYL-IMIDACLOPRID] | 100 | 0.83 | 2.3 | 0.95 | 100 | 73 | 90 | 55 | 90 | 50 | 42 | 60
C[C@@H](c1ccc(Cl)nc1)N1CCN/C1=N\[N+](=O)[O-] [(S)-METHYL-IMIDACLOPRID] | 90 | 0.93 | 1.1 | 0.19 | 100 | 5.9 | 100 | 45 | 60 | 100 | 30 | 40
O=[N+]([O-])/N=C1\NCCN1Cc1ccc(Cl)nc1 [IMIDACLOPRID] | 100 | 0.07 | 0.26 | 0.02 | 100 | 2.3 | 100 | 2.2 | 100 | 100 | 1.1 | 100
CN1CCC[C@H]1c1cccnc1 [NICOTINE] | – | 310 | – | 11.9 | – | – | – | – | – | – | 490 | –
CN1CCC[C@@H]1c1cccnc1 [R-NICOTINE] | – | 160 | – | 422 | – | – | – | – | – | – | 320 | –
